Assay results taken from patent US11458187B2, “Extracellular histones as biomarkers for prognosis and molecular targets for therapy” (OKLAHOMA MEDICAL RESEARCH FOUNDATION, priority 2007, dated 2022).

Columns and labels:
[1] = system: baboons challenged with a lethal dose of E. coli; conditions: infusion of APC (Taylor et al., 1987); cited from earlier work
IL-6 = IL-6 production from endothelium (ELISA); format: cell-based, human; conditions: FIG. 8
Method: FIG. 8—Histones induce IL-6 production from endothelium. EA.hy926 cells were stimulated with histone (0.1 mg/ml) or histone H3, histone H4 (50 μg/ml) for 24 hr at 37° C. in the absence or presence of APC (6 μg/ml), Anti-TLR2, Anti-TLR4 (10 μg/ml). Conditioned medium was measured for IL-6 production by IL-6 ELISA kit.

[2] = system: baboons challenged with a lethal dose of E. coli; experiment: Baboon model of sepsis, lethal dose of E. coli with or without infused APC; format: in vivo
Method: Six to 8 week male C57BL/6 mice (Jackson Lab) were used according to an animal protocol approved by Institutional Animal Care and Use Committees of the Oklahoma Medical Research Foundation. Baboon experiments were performed as previously described^5.
To test whether extracellular histones may be involved in the pathogenesis of diseases and if APC can cleave these histones in vivo, the inventors examined frozen archival plasma samples from a non-human primate model of sepsis in which baboons were challenged with a lethal dose of E. coli (Taylor et al., 1987). […] The inventors measured extracellular histones in the plasma from animals challenged with the lethal dose of E. coli either in the absence or presence of infused APC. Intact histone H3 was detected by Western blot in the plasma of the two baboons challenged with the lethal dose of E. coli and reached about 15 μg/ml 8 hours post-challenge (FIG. 14E). The inventors were unable to measure other histones in the same way because those anti-histone antibodies were not adequately sensitive. The increase in histone H3 accompanied the onset of acute renal failure as indicated by a high serum creatinine level, 2.65+/−0.05 mg/dL (normal range: 0.7-1.4 mg/dL) 8 hours post-challenge. […] APC co-infusion protected renal function as indicated by the normal serum creatinine level, 1.15+/−0.15 mg/dL at 8 hours post-challenge. […]

mice = experiment: Intravenous histone injection lethality in mice; format: in vivo, mouse; conditions: co-injection of 5 mg APC/kg with 75 mg/kg histones, n=5
Method: To test the toxic effect of histones in vivo, the inventors injected 75 mg/kg of histones intravenously into mice. […] The calculated histone H3 concentration in the circulation of mice injected with the lethal dose of histones is about 5 times higher than the histone H3 level detected in the baboon plasma 8 hr post challenge with E. coli. […] The ratio of APC to histone H3 used to rescue the mice in vivo is similar to the ratio of APC to histone H3 used in endothelial cytoprotection experiment in vitro.

IL-8 = IL-8 production from endothelium (ELISA); format: cell-based, human; conditions: FIG. 9
Method: FIG. 9—Histones induce IL-8 production from endothelium. EA.hy926 cells were stimulated with histone (0.1 mg/ml) or histone H3, histone H4 (50 μg/ml) for 24 hr at 37° C. in the absence or presence of APC (6 μg/ml), Anti-TLR2, Anti-TLR4 (10 μg/ml). Conditioned medium was measured for IL-8 production by […] ELISA kit.

[3] = severe sepsis; decreased from about 31%; cited from earlier work
calf thymus histone H4 = target: T1, calf thymus histone H4 (Bos taurus, UniProt P62803); experiment: Cleavage of purified histone H4 by APC (SDS-PAGE); format: biochemical; conditions: 37° C.
T1 construct: Purified calf thymus histone H3 (top panel) or histone H4 (bottom panel); purchased Roche; host or cells: calf thymus tissue
Method: 0.1 mg/ml histone H4 was incubated with 20 μg/ml human APC in PBS containing 1 mM CaCl2 and MgCl2 at 37° C. for 60 min. Sample was subjected to SDS-PAGE and GelCode Blue (PIERCE) staining or sent to matrix-assisted laser desorption ionization-time of flight facility at the University of Oklahoma Health Science Center for molecular weight determination.

calf thymus histone H3 = experiment: Cleavage of purified histone H3 by APC (SDS-PAGE); format: biochemical; conditions: 100 μg/ml histone H3, indicated concentrations of human APC, 1 hr, 37° C.; FIG. 13C
Method: (FIG. 13C) Purified calf thymus histone H3 (top panel) or histone H4 (bottom panel) (100 μg/ml) was incubated in Opti-MEM medium with the indicated concentrations of human APC for 1 hr at 37° C. Samples were then subjected to SDS-PAGE and coomassie blue staining.

[4] = APC 6 μg/ml, Anti-TLR2, Anti-TLR4 10 μg/ml, 24 hr
[5] = stimulation of EA.hy926 24 hr, serum-free, histones 0.1 mg/ml, histone H3 or H4 50 μg/ml

Row | Substance | survival of baboons [1] | inhibition of histone-induced IL-6 production (IL-6; [4]) | serum creatinine level ([2]; 8 hours post-challenge, APC co-infusion, normal range 0.7-1.4 mg/dL, 2.65+/−0.05 without APC) [mg/dL] | cleavage of extracellular histone H3 in plasma (Western blot) ([2]; two animals challenged with a lethal dose of E. coli and administered APC, FIG. 14E) | rescue from lethal dose of histones (mice) | inhibition of histone-induced IL-8 production (IL-8; [4]) | mortality [3] | cleavage of purified histone H4 (calf thymus histone H4; 100 μg/ml histone H4, indicated concentrations of human APC, 1 hr, FIG. 13C) | cleavage of purified histone H4 (calf thymus histone H4; 0.1 mg/ml histone H4, 20 μg/ml human APC, 60 min, 4-7 KD fragments, FIG. 4B) | cleavage of purified histone H3 (calf thymus histone H3) | IL-6 production (IL-6; [5]) | IL-8 production (IL-8; [5])
1 | APC: Human recombinant APC (Xigris) purchased from Eli Lilly; drotrecogin alfa (activated protein C) | rescued these animals | completely inhibits histone effect on IL-6 and IL-8 production | 1.15 ± 0.15 | can cleave extracellular histones in vivo | rescued all of the mice | completely inhibits histone effect on IL-6 and IL-8 production | about 25% | cleaved histone H3 and H4 in a dose dependent fashion | also cleaved by APC | cleaved histone H3 and H4 in a dose dependent fashion | – | –
2 | Pam3CSK4 | – | – | – | – | – | – | – | – | – | – | have no effect | have no effect
